These results are taken from PubChem BioAssay (NCI).

Values joined by “and” are separate entries in the source; they are usually repeats but may differ in a detail not shown here. Equal values may be shown once.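 Growth conditions: 96-well plates. Treatment: test compound, 48 hours, 5 concentrations. Analysis: linear interpolation between bracketing concentrations; unreached endpoints set to highest concentration. GI50 marks 50% less growth. TGI: concentration producing complete growth inhibition.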

Test systems include SF-539 CNS; RXF 393 renal; CAKI-1 renal; HT29 colon; A549 NSCLC; MDA-MB-435; LOX IMVI melanoma; UACC-62 melanoma; SNB-75 CNS; UACC-257 melanoma.
Common to all, as to assay: NCI tumour cell line growth inhibition, 48 h

As to `C/C=C(\C)C(=O)OC1/C=C(\C)CC/C=C(\C)CC2OC(=O)C(C)(OC(C)=O)C12` (stereo not given), the TGI in the experiment on SF-539 CNS, with RXF 393 renal, with CAKI-1 renal, in the experiment with HT29 colon, in the experiment with A549 NSCLC and in the experiment on MDA-MB-435 was greater than 100 µM each time. Further, the TGI with LOX IMVI melanoma, with UACC-62 melanoma, with SNB-75 CNS and in the experiment with UACC-257 melanoma was greater than 100 µM each time.

Take `CCC1=C(CC2NCCc3ccccc32)CC2c3cc(OC)c(OC)cc3CCN2C1` (stereo not given): the GI50 is 4.84 µM with SF-539 CNS; 2.67 µM in the experiment with RXF 393 renal; 3.28 µM in the experiment with CAKI-1 renal; 3.31 µM in the experiment on HT29 colon; 3.49 µM in the experiment on A549 NSCLC; 3.51 µM in the experiment with MDA-MB-435. For the same compound, the GI50 with LOX IMVI melanoma is 4.4 µM; in the experiment on UACC-62 melanoma, 13.9 µM; with SNB-75 CNS it was 4.09 µM; with UACC-257 melanoma, 10 µM. Moreover, the TGI in the experiment on SF-539 CNS was 16.4 µM and 2.85 µM; with RXF 393 renal, 13.5 µM and 5.3 µM; in the experiment with CAKI-1 renal, 15.2 µM; in the experiment with HT29 colon it was 11.8 µM and 4.53 µM; with A549 NSCLC, 19.9 µM and 4.88 µM; in the experiment on MDA-MB-435 it was 14.2 µM and 2.45 µM. The TGI was 15.5 µM and 5.68 µM in the experiment with LOX IMVI melanoma; 27.5 µM and 6.66 µM in the experiment with UACC-62 melanoma; 13.8 µM and 2.47 µM in the experiment on SNB-75 CNS; 24.5 µM and 9.49 µM with UACC-257 melanoma.

For the compound `N#Cc1cc(S(=O)(=O)Nc2nc3ccccc3o2)c(SCc2ccccc2)cc1Cl`, the GI50 with SF-539 CNS is 17.9 µM; in the experiment on RXF 393 renal it was 23.9 µM; in the experiment with CAKI-1 renal, 24.7 µM; with HT29 colon it was 29.1 µM; in the experiment on A549 NSCLC, 22.5 µM; with MDA-MB-435, 27.2 µM. Further, the GI50 in the experiment on LOX IMVI melanoma was 18.7 µM; in the experiment on UACC-62 melanoma, 20.3 µM; with SNB-75 CNS, 25.5 µM; in the experiment on UACC-257 melanoma, 22.3 µM. Also, the TGI came to 33.3 µM in the experiment with SF-539 CNS; 53.1 µM with RXF 393 renal; 65.2 µM with CAKI-1 renal; 83.6 µM in the experiment on HT29 colon; 55 µM in the experiment on A549 NSCLC; 60.2 µM with MDA-MB-435. The TGI in the experiment on LOX IMVI melanoma was 36.5 µM; with UACC-62 melanoma it was 52.2 µM; in the experiment on SNB-75 CNS it was 59.3 µM; in the experiment with UACC-257 melanoma, 55.9 µM.

On to `C=C(C)[C@@H]1CC[C@]2(C(=O)NS(=O)(=O)c3ccccc3)CC[C@]3(C)[C@H](CC[C@@H]4[C@@]5(C)CC[C@H](OC(=O)NS(=O)(=O)c6ccccc6)C(C)(C)[C@@H]5CC[C@]43C)[C@@H]12`, for which the GI50 in the experiment with SF-539 CNS was 1.27 µM; with RXF 393 renal it was 1.61 µM; in the experiment on CAKI-1 renal, 3.06 µM; in the experiment on HT29 colon, 2.03 µM; in the experiment on A549 NSCLC, 3.24 µM; in the experiment with MDA-MB-435, 1.77 µM. Further, the GI50 was 1.56 µM in the experiment on LOX IMVI melanoma, 1.32 µM with UACC-62 melanoma, 3.44 µM in the experiment with SNB-75 CNS and 3.06 µM in the experiment with UACC-257 melanoma. Also, the TGI in the experiment with SF-539 CNS is 2.59 µM; with RXF 393 renal, 3.26 µM; in the experiment on CAKI-1 renal, 22.5 µM; in the experiment on HT29 colon, 11 µM; in the experiment with A549 NSCLC, 21.8 µM; with MDA-MB-435 it was 4.89 µM. In addition, the TGI was found to be 3.06 µM in the experiment with LOX IMVI melanoma, 2.92 µM with UACC-62 melanoma, 18.5 µM in the experiment on SNB-75 CNS and 9.06 µM in the experiment on UACC-257 melanoma.
